Data set [1] in a line: PK of CNP immunoreactivity after single intravenous administration in rats. The class given is in vivo, rat.
Data set [2] can be described thus: PK of CNP immunoreactivity after single subcutaneous administration in rats. The class given is in vivo, rat.
For data set [3] the following is noted: mouse, in vivo. The method, then:
Three-week-old juvenile female ICR mice (n = 5 or 10/group) received ASB20123 sc bolus injections once daily for 8 weeks. Seven-week-old male SD rats (n = 5/group) received ASB20123 as multiple sc bolus injections or a continuous sc infusion using an osmotic mini-pump (ALZET osmotic pump, Durect Corporation, USA) for 1 or 12 weeks. Growth rate of each animal was monitored throughout the treatment and washout periods. Body weight, body (naso-anal) length, and tail length were measured weekly, and femoral and tibial lengths were measured with digital calipers on the final day. Osteocalcin concentration in mouse serum was measured as a marker of bone formation using commercially available ELISA kits (Mouse Osteocalcin EIA kit, Biomedical Technologies Inc., USA). Anti-ASB20123 antibody in mouse serum was measured using commercially available ELISA kits (Protein detector ELISA Kit, Kirkegaard & Perry Laboratories, Inc., USA) and ASB20123. The blood samples were collected from the posterior vena cava at the end of the dosing period and centrifuged to obtain serum samples. CNP immunoreactivity in rat plasma was determined by RIA as mentioned in the method of PK studies. The blood samples were collected from cervical vein at 15 min after sc bolus dosing or before necropsy for animals given a continuous sc infusion.

Data set [4] is described as follows: Plasma CNP immunoreactivity after sc bolus in vehicles containing ECM in rats. The method, then: We prepared CNP(1–22) and ASB20123 dissolved in vehicles containing ECM and delivered them to rats as sc bolus injections at 0.58 mg/kg for evaluation of their in vivo effects (S2 Fig).
The conditions of data set [5]: cited from earlier work. From the text: C-type natriuretic peptide (CNP) is a member of the natriuretic peptide (NP) family that also includes atrial natriuretic peptide (ANP) and brain natriuretic peptide (BNP). […] However, CNP is expressed in various tissues, such as the central nervous system, reproductive tract, bone, and endothelium of blood ...
In data set [6] the test system is Crouzon syndrome mouse model. As to conditions: cited from earlier work. An excerpt: (§1) In the previous study, we designed and evaluated some CNP/ghrelin chimeric peptides as novel CNP derivatives. […] In the current study, we prepared another novel CNP/ghrelin chimeric peptide ASB20123 and evaluated its pharmacological activities. ASB20123 is comp ...
The subject of a further data set is Fgfr3^ach mice. The following applies: cited from earlier work.
Excerpt: as §1

In a further data set the test system is female ICR mice. The experiment in a line: Skeletal growth of mice given CNP(1–22) or human CNP(1–53) sc for 3 weeks. It counts as in vivo, mouse. The following applies: subcutaneous administration for 3 weeks (S3 Fig). From the text:
Interstitial diffusion of macromolecules, such as HA and glycosaminoglycan, is affected by their physiochemical characteristics, including their size, charge, and hydrophilicity, as well as their interactions with the endogenous components present in the interstitium. Interaction between ASB20123 and the endogenous molecules might play a role in the diffusion and absorption processes. […] The C-terminal part of ASB20123 might interact with ECM components, such as HA and glycosaminoglycan, resulting in a delay of its absorption from the sc tissue to the circulation and improvement of its stability.
Supplementary file pone.0212680.s003.tif: S3 Fig Body weight and body length of female ICR mice subcutaneously administered CNP(1–22) and human CNP(1–53) for 3 weeks. (TIF) Click here for additional data file.

Data set [7] deals with neutral endopeptidase (NEP). As to conditions: cited from earlier work.
Where [8] appears, read: anesthetized male SD rats, single iv 20 nmol/kg, plasma CNP immunoreactivity by RIA, mean of 3 rats.
Setting [9] is: anesthetized male SD rats, single sc 50 nmol/kg, plasma CNP immunoreactivity by RIA, mean of 3 rats.

Ends that are not written are not given here. Peptide text beside a SMILES is read from it.

Take `CC[C@H](C)[C@@H]1NC(=O)[C@H](CCCNC(=N)N)NC(=O)[C@H](CC(=O)O)NC(=O)[C@H](CC(C)C)NC(=O)[C@H](CCCCN)NC(=O)[C@H](CC(C)C)NC(=O)CNC(=O)[C@H](Cc2ccccc2)NC(=O)[C@@H](NC(=O)CNC(=O)[C@H](CCCCN)NC(=O)[C@H](CO)NC(=O)[C@H](CC(C)C)NC(=O)CN)CSSC[C@@H](C(=O)N[C@H](C(=O)N[C@@H](CCC(N)=O)C(=O)N[C@@H](CCC(N)=O)C(=O)N[C@@H](CCCNC(=N)N)C(=O)N[C@@H](CCCCN)C(=O)N[C@@H](CC(=O)O)C(=O)N[C@@H](CO)C(=O)N[C@@H](CCCCN)C(=O)N[C@@H](CCCCN)C(=O)N2CCC[C@H]2C(=O)N2CCC[C@H]2C(=O)N[C@@H](C)C(=O)N[C@@H](CCCCN)C(=O)N[C@@H](CC(C)C)C(=O)N[C@@H](CCC(N)=O)C(=O)N2CCC[C@H]2C(=O)N[C@@H](CCCNC(=N)N)C(=O)O)C(C)C)NC(=O)CNC(=O)[C@H](CC(C)C)NC(=O)CNC(=O)[C@H](CO)NC(=O)[C@H](CCSC)NC(=O)[C@H](CO)NC(=O)CNC1=O` [ASB20123] (HELM PEPTIDE1{G.L.S.K.G.C.F.G.L.K.L.D.R.I.G.S.M.S.G.L.G.C.V.Q.Q.R.K.D.S.K.K.P.P.A.K.L.Q.P.R}$PEPTIDE1,PEPTIDE1,6:R3-22:R3$$$V2.0): in data set [1] (rat, in vivo, iv), the T1/2 came out at 31.3 min, the Vdss turned out to be 0.429 L/kg and the “Vdss relative to that of CNP(1–22)” value is 6.7 fold. In data set [2] (rat, in vivo, sc), the T1/2 is 32.1 min and the time to peak (Tmax) was found to be 20.0 min. Besides, the “Anti-ASB20123 antibody in serum” value in data set [3] was “not detected”. Moreover, in data set [4] (rat, in vivo, sc, 0.58 mg/kg), the AUC entry was “higher than that when ASB20123 was dissolved in saline” and the “Time to reach the maximum plasma CNP concentration (Cmax)” value was “delayed”.
Consider `CC[C@H](C)[C@@H]1NC(=O)[C@H](CCCNC(=N)N)NC(=O)[C@H](CC(=O)O)NC(=O)[C@H](CC(C)C)NC(=O)[C@H](CCCCN)NC(=O)[C@H](CC(C)C)NC(=O)CNC(=O)[C@H](Cc2ccccc2)NC(=O)[C@@H](NC(=O)CNC(=O)[C@H](CCCCN)NC(=O)[C@H](CO)NC(=O)[C@H](CC(C)C)NC(=O)CN)CSSC[C@@H](C(=O)O)NC(=O)CNC(=O)[C@H](CC(C)C)NC(=O)CNC(=O)[C@H](CO)NC(=O)[C@H](CCSC)NC(=O)[C@H](CO)NC(=O)CNC1=O` [CNP(1–22), C-type natriuretic peptide], for which, in data set [1] (setting [8]), the “AUC0→∞” value worked out at 320 pmol・min/mL, the CLtot was 63.9 mL/min/kg, the “MRT0→∞” value amounted to 1.02 min and the T1/2 was 1.42 min. The distribution volume (Vdss) in [1] (setting [8]) came to 0.0642 L/kg. For the same molecule, the BA in data set [2] (anesthetized male SD rats, single sc 50 nmol/kg, bioavailability, mean of 3 rats) was 19%. Besides, in data set [2] (setting [9]), the “AUC0→∞” value came to 152 pmol・min/mL, the Cmax worked out at 9.02 nM, the “MRT0→∞” value is listed as 13.9 min and the T1/2 is reported as 10.0 min. Moreover, in [2] (setting [9]), the Tmax is listed as 5.0 min. For the same molecule, the “PK profile, effect of vehicle components” value in data set [4] (rats, sc bolus 0.58 mg/kg in vehicles containing ECM) was “not affected by its vehicle components”. The “Clearance of exogenous peptide from the circulation” value in data set [5] was “rapidly cleared from the circulation”.
As to BMN-111, the Body length entry (in [6]; in the data set on Fgfr3^ach mice) was “increased the body length” in each case.
Regarding “CNP(1–53): 53-residue peptide generated from pro-CNP (DLRVDTKSRAAWARLLQEHPNARKYKGANKKGLSKGCFGLKLDRIGSMSGLGC; ends and bridges not checked; cysteine pairing not given here; UniProt P23582 74-126, looked up)”, in the data set with female ICR mice, the “Skeletal growth compared to CNP(1–22)” value is recorded as “more potently than that induced by CNP(1–22) administration”. The “Stability against neutral endopeptidase (NEP)” value in [7] was “resistant to proteolytic inactivation”.

Usually Vdss stands for a proportionality between amount in the body and measured concentration, not a real space. High values mean wide distribution into tissue, low ones little distribution into tissue. For orientation: Tmax means the time at which the peak concentration occurs. The term Cmax denotes the highest concentration seen after dosing.

These data come from PMC6386482, “ASB20123: A novel C-type natriuretic peptide derivative for treatment of growth failure and dwarfism” (PLoS ONE, 2019).
